The text below walks through data of patent publication US20110118309A1, “USE OF HDAC INHIBITORS FOR THE TREATMENT OF HODGKIN'S DISEASE” (priority 2008, published 2011).

Assay [1] concerns HD-MY-Z. The assay is described as follows: Single agent anti-tumor activity of LBH589 in Hodgkins Lymphoma cell lines in vitro (growth inhibition and cell kill). It counts as cell-based. From the text:
(§1) Bcl2 may be a patient stratification marker
(§2) Single agent anti-tumor activity of LBH589 in Hodgkins Lymphoma cell lines in vitro is outlined in table I.

In assay [2] the test system is L-428. Described as above. It counts as cell-based. Conditions: L-428, Hodgkins Lymphoma.
Source text: as §1, §2

Assay [3] relates to RPMI 6666. The description is as above. The assay is classed as cell-based. Conditions: RPMI 6666, Hodgkins Lymphoma.
Source text: as §1, §2

Assay [4] concerns Hodgkin lymphoma cell lines, RPMI6666, HD-MY-Z, and L428. The assay can be described thus: Proliferation and viability of 3 Hodgkin lymphoma cell lines. The assay is classed as cell-based. Conditions: range over 3 HL cell lines; units printed in the value (picomolar, nanomolar).
Source text: as §1

In assay [5] the test system is Cell lines of mantle cell and follicular lymphoma. The assay is described as follows: Sensitivity of mantle cell and follicular lymphoma cell lines. It counts as cell-based.
Source text: as §1

For assay [6], the system named is CTCL cell lines. The assay can be described thus: Sensitivity of CTCL cell lines. The assay is classed as cell-based.
Source text: as §1

For assay [7], the system named is CTCL mouse model. The assay can be described thus: CTCL mouse model. The assay is classed as in vivo.
Source text: as §1

For assay [8], the system named is E[…]-myc mouse lymphoma model. The assay is described as follows: E[…]-myc mouse lymphoma model. It counts as in vivo.
Source text: as §1

[9] abbreviates: Homo sapiens, read-out: IC50: Concentration of LBH589 required to inhibit growth of cell line by 50%.

Take `Cc1[nH]c2ccccc2c1CCNCc1ccc(/C=C/C(=O)NO)cc1` [LBH589, N-hydroxy-3-[4-[[[2-(2-methyl-1H-indol-3-yl)-ethyl]-amino]methyl]phenyl]-2E-2-propenamide]: the entries for the “LD90: Concentration of LBH589 required to kill a cell line population by 90%” value in assay [1] (in nM), in assay [2] and in assay [3] (in nM) were >10,000, 57.5 nM and 274.7, respectively. Besides, the IC50 in assay [1] (read-out: IC50: Concentration of LBH589 required to inhibit growth of cell line by 50%) was 50.8 nM; in assay [2] (setting [9]), 10.5 nM; in assay [3] (setting [9]), 0.2 nM; in assay [4], 0.2 to 50 nM. In addition, the “sensitivity to LBH589” value is reported as “extreme sensitivity” in assay [5] and “extremely sensitive” in assay [6]. The tumor regression result in assay [7] is listed as “profound tumor regression”. Also, in assay [8], the regression of lymphoma entry is recorded as “produces regression”. Also, the survival result in assay [8] is on record as “extends survival”.
